Measured values published in US8697694B2, “Substituted pyridine and pyrimidine derivatives and their use in treating viral infections” (priority 2008, dated 2014).
Read-outs that look alike come from different tables or passages of the source.

Tested on: HCV replicon cells
Assay: Cell-based HCV replicon assay (replicon RNA level by real time PCR, Taqman)
Conditions: Hepatitis C virus, 72 h, HCV replicon cells, read-out: EC90 (μM) range
Procedure, shortened: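 HCV replicon cells treated 3 days with 10 serial 2-fold compound dilutions (top 25 μM to 1 μM; 0.5% DMSO, 10% FBS). Replicon RNA quantified by multiplex Taqman RT-PCR (NS5B amplicon, GAPDH control); EC50 and EC90 = concentrations giving ΔCT of 1 and 3.2 over baseline.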

[1] = replicon RNA level by real time PCR (Taqman), harvested on day 3, calculated EC90 reported as range class
[2] = harvested day 3, replicon RNA by real time PCR, given as number
[3] = harvested day 3, replicon RNA by real time PCR, reported as range class
[4] = harvested on day 3, replicon RNA by real time PCR, calculated EC90 reported as range class
[5] = replicon RNA level by real time PCR, harvested day 3
[6] = replicon RNA level by real time PCR (Taqman), day 3, calculated EC90

Cc1cc2sc(-c3c(C)nc(N[C@@H](C)c4ccc(OC(F)(F)F)cc4)nc3N[C@@H]3C[C@H](CO)[C@@H](O)[C@H]3O)nc2c(C)n1 [Example 1137]
EC90 [1]: < 0.5 µM

COCCNc1nc(C)c(-c2cc3cc(OCC4CC4)ncc3o2)c(N[C@@H]2C[C@H](CO)[C@@H](O)[C@H]2O)n1 [Example 59]
EC90 [2]: 2 µM

Cc1nc(NCCO)nc(N[C@@H]2C[C@H](CO)[C@@H](O)[C@H]2O)c1-c1nc2ccccc2s1 [Example 210]
EC90 [3]: < 0.5 µM

COc1cccc(C)c1Nc1nc(C)c(-c2nc3ccccc3s2)c(N[C@@H]2C[C@H](CO)[C@@H](O)[C@H]2O)n1 [Example 1233]
EC90 [1]: 0.5 to 5 µM

Cc1nc(NCc2ccco2)nc(N[C@@H]2C[C@H](CO)[C@@H](O)[C@H]2O)c1-c1nc2ccccc2s1 [Example 470]
EC90 [4]: < 0.5 µM

Cc1nc(NCC(F)(F)F)nc(N[C@@H]2C[C@H](CO)N(C(=O)OC(C)(C)C)C2)c1-c1nc2ccccc2s1 [Example 1348]
EC90 [5]: > 5 µM

COc1cc2cc(-c3c(Cl)nc(N)nc3N[C@@H]3C[C@H](CO)[C@@H](O)[C@H]3O)oc2c(C)n1 [Example 14]
EC90 [3]: < 0.5 µM

Cc1ccc([C@@H](C)Nc2nc(C)c(-c3nc4cnccc4s3)c(N[C@@H]3C[C@H](CS(C)(=O)=O)[C@@H](O)[C@H]3O)n2)cc1 [Example 1368]
EC90 [5]: < 0.5 µM

Cc1nc(N[C@@H](c2ccsc2)C(F)(F)F)nc(N[C@@H]2C[C@H](CO)[C@@H](O)[C@H]2O)c1-c1nc2ccccc2s1 [Example 1703]
EC90 [5]: 0.5 to 5 µM

Cc1ccc(CNc2nc(C)c(-c3nc4ncccc4o3)c(N[C@@H]3C[C@H](CO)[C@@H](O)[C@H]3O)n2)cc1 [Example 2007]
EC90 [6]: < 0.5 µM

Cc1nc(NCC(F)(F)F)nc(N[C@@H]2C[C@H](C(O)c3nccs3)[C@@H](O)[C@H]2O)c1-c1nc2ccccc2s1 (stereo partly shown) [Example 1639]
EC90 [5]: < 0.5 µM

CCCCCCNc1nc(Cl)c(-c2nc3ccccc3s2)c(N[C@@H]2C[C@H](CO)[C@@H](O)[C@H]2O)n1 [Example 454]
EC90 [4]: < 0.5 µM

Cc1nc(CNc2nc(C)c(-c3nc4ccccc4s3)c(N[C@@H]3C[C@H](CO)[C@H]4OC(C)(C)O[C@H]43)n2)cs1 [Example 494]
EC90 [4]: > 5 µM

Cc1nc(N[C@@H](c2cccs2)C(F)(F)F)nc(N[C@@H]2C[C@H](CO)[C@@H](O)[C@H]2O)c1-c1nc2ccccc2s1 [Example 1801]
EC90 [5]: < 0.5 µM

Nc1nc(Cl)c(-c2cc3cncnc3o2)c(N[C@@H]2C[C@H](CO)[C@@H](O)[C@H]2O)n1 [Example 402]
EC90 [3]: > 5 µM

Cc1nc(NCc2cccc[n+]2[O-])nc(N[C@@H]2C[C@H](CO)[C@H]3OC(C)(C)O[C@H]32)c1-c1nc2ccccc2s1 [Example 481]
EC90 [4]: > 5 µM

Cc1nc(NCc2cccnc2)nc(N[C@@H]2C[C@H](CO)[C@H]3OC(C)(C)O[C@H]32)c1-c1nc2ccccc2s1 [Example 463]
EC90 [4]: < 0.5 µM

COc1ccc(Nc2nc(C)c(-c3nc4ccccc4s3)c(N[C@@H]3C[C@H](CO)[C@@H](O)[C@H]3O)n2)cc1 [Example 1221]
EC90 [1]: 0.5 to 5 µM

Cc1cc2cc(-c3c(Cl)nc(N)nc3N[C@@H]3C[C@H](CO)[C@@H](O)[C@H]3O)oc2c(C)n1 [Example 401]
EC90 [3]: < 0.5 µM

Nc1nc(Cl)c(-c2ccco2)c(N[C@@H]2C[C@H](CO)[C@@H](O)[C@H]2O)n1 [Example 152]
EC90 [3]: > 5 µM

CCOCCNc1nc(C)c(-c2nc3ccccc3s2)c(N[C@@H]2C[C@H](CO)[C@@H](O)[C@H]2O)n1 [Example 208]
EC90 [3]: < 0.5 µM

CCOc1cc2cc(-c3c(C)nc(NCc4cc(OC)cc(OC)c4)nc3N[C@@H]3C[C@H](CO)[C@@H](O)[C@H]3O)oc2c(C)n1 [Example 36]
EC90 [2]: 0.01 µM

CCc1cc2cc(-c3c(Cl)nc(N)nc3N[C@@H]3C[C@H](CO)[C@@H](O)[C@H]3O)oc2c(CC)n1 [Example 407]
EC90 [3]: < 0.5 µM

Cc1ccc([C@H](Nc2nc(C)c(-c3nc4ccccc4s3)c(N[C@@H]3C[C@H](CO)[C@@H](O)[C@H]3O)n2)C(F)(F)F)cc1 [Example 2005]
EC90 [6]: 0.5 to 5 µM

Cc1nc(NCc2cccs2)nc(N[C@@H]2C[C@H](CO)[C@H]3OC(C)(C)O[C@H]32)c1-c1nc2ccccc2s1 [Example 328]
EC90 [4]: < 0.5 µM

Cc1cc(CNc2nc(C)c(-c3nc4ccccc4s3)c(N[C@@H]3C[C@H](CO)[C@@H](O)[C@H]3O)n2)on1 [Example 493]
EC90 [4]: < 0.5 µM

CCCc1cc2cc(-c3c(Cl)nc(NC)nc3N[C@@H]3C[C@H](CO)[C@@H](O)[C@H]3O)oc2c(C)n1 [Example 312]
EC90 [3]: < 0.5 µM

Cc1nc(NCC(=O)O)nc(N[C@@H]2C[C@H](CO)[C@@H](O)[C@H]2O)c1-c1nc2ccccc2s1 [Example 1011]
EC90 [1]: 0.5 to 5 µM

Cc1nc(C(N)=O)nc(N[C@@H]2C[C@H](CO)[C@H]3OC(C)(C)O[C@H]32)c1-c1nc2ccccc2s1 [Example 1902]
EC90 [5]: > 5 µM

Cc1nc(NCc2cccc[n+]2[O-])nc(N[C@@H]2C[C@H](CO)[C@@H](O)[C@H]2O)c1-c1nc2ccccc2s1 [Example 482]
EC90 [4]: 0.5 to 5 µM

Cc1nc(N[C@H](C)c2ccc(OC(F)(F)F)cc2)nc(N[C@@H]2CC[C@@H](O)[C@@]2(C)O)c1-c1nc2cnccc2s1 [Example 1542]
EC90 [5]: 0.5 to 5 µM

Cc1nc(NCCN(C)C)nc(N[C@@H]2C[C@H](CO)[C@@H](O)[C@H]2O)c1-c1nc2ccccc2s1 [Example 246]
EC90 [4]: > 5 µM

CCN(C[C@H]1C[C@@H](Nc2nc(NCC(F)(F)F)nc(C)c2-c2nc3ccccc3s2)[C@H](O)[C@@H]1O)C(=O)OC [Example 1391]
EC90 [5]: < 0.5 µM

Cc1cncc2oc(-c3c(Cl)nc(N)nc3N[C@@H]3C[C@H](CO)[C@@H](O)[C@H]3O)cc12 [Example 304]
EC90 [3]: > 5 µM

Cc1nc(NCC(F)(F)F)nc(N[C@@H]2C[C@H](C)[C@@H](O)[C@H]2O)c1-c1nc2ccccc2s1 [Example 1630]
EC90 [5]: < 0.5 µM

CN(C)c1nc(N[C@@H]2C[C@H](CO)[C@@H](O)[C@H]2O)c(-c2nc3ccccc3s2)c(-c2ccccc2)n1 [Example 414]
EC90 [3]: > 5 µM

Cc1nc(N(C)c2ccccc2)nc(N[C@@H]2C[C@H](CO)[C@@H](O)[C@H]2O)c1-c1nc2cnccc2s1 [Example 1217]
EC90 [1]: > 5 µM

CNc1nc(Cl)c(-c2nc3ccccc3s2)c(N(C)[C@@H]2C[C@H](CO)[C@@H](O)[C@H]2O)n1 [Example 404]
EC90 [3]: > 5 µM

Cc1nc(NCC(F)(F)F)nc(N[C@@H]2C[C@H](C(C)O)[C@@H](O)[C@H]2O)c1-c1nc2ccccc2s1 (stereo partly shown) [Example 1632]
EC90 [5]: < 0.5 µM

Cc1nc(NCc2c(F)cccc2F)nc(N[C@@H]2CC[C@@H](O)[C@@]2(C)O)c1-c1nc2cnccc2s1 [Example 1808]
EC90 [5]: < 0.5 µM

COc1cccc(Nc2nc(C)c(-c3nc4ccccc4s3)c(N[C@@H]3C[C@H](CO)[C@H]4OC(C)(C)O[C@H]43)n2)c1OC [Example 1128]
EC90 [1]: > 5 µM

Cc1nc(NCC(F)(F)F)nc(N[C@@H]2C[C@H](CS(C)(=O)=O)[C@@H](O)[C@H]2O)c1-c1nc2cnccc2s1 [Example 1367]
EC90 [5]: < 0.5 µM

Cc1nc(NCC(F)(F)F)nc(N[C@@H]2C[C@H](CN(C)S(C)(=O)=O)[C@@H](O)[C@H]2O)c1-c1nc2ccccc2s1 [Example 1379]
EC90 [5]: < 0.5 µM

Cc1nc(NCC(F)(F)F)nc(N[C@@H]2C[C@H](CN3CCCS3(=O)=O)[C@@H](O)[C@H]2O)c1-c1nc2ccccc2s1 [Example 1396]
EC90 [5]: < 0.5 µM

Cc1nc(NCc2cccs2)nc(N[C@@H]2CCC[C@H]2O)c1-c1nc2ccccc2s1 (racemic) [Example 333]
EC90 [4]: < 0.5 µM

Cc1ccccc1[C@@H](C)Nc1nc(C)c(-c2nc3c(C)nccc3s2)c(N[C@@H]2C[C@H](CO)[C@@H](O)[C@H]2O)n1 [Example 1527]
EC90 [5]: < 0.5 µM

CC1(C)O[C@@H]2[C@@H](CO)C[C@@H](Nc3nc(N)nc(Cl)c3-c3nc4c(F)cc(F)cc4s3)[C@@H]2O1 [Example 186]
EC90 [3]: 0.5 to 5 µM

Cc1nc(NCc2cccc(N)c2)nc(N[C@@H]2C[C@H](CO)[C@@H](O)[C@H]2O)c1-c1nc2ccccc2s1 [Example 1112]
EC90 [1]: 0.5 to 5 µM

Cc1nc(NCc2cccc(N(C)C)c2)nc(N[C@@H]2C[C@H](CO)[C@H]3OC(C)(C)O[C@H]32)c1-c1nc2ccccc2s1 [Example 1105]
EC90 [1]: 0.5 to 5 µM

CCC(C)(C)Nc1nc(Cl)c(-c2nc3ccccc3s2)c(N[C@@H]2C[C@H](CO)[C@@H](O)[C@H]2O)n1 [Example 506]
EC90 [4]: < 0.5 µM

OC[C@H]1C[C@@H](Nc2nc(NC3CCOCC3)nc(Cl)c2-c2nc3ccccc3s2)[C@H](O)[C@@H]1O [Example 424]
EC90 [4]: < 0.5 µM

Cc1nc(NCC(F)(F)F)nc(N[C@@H]2C[C@H](COC(=O)N3CCCC3)[C@@H](O)[C@H]2O)c1-c1nc2ccccc2s1 [Example 64]
EC90 [2]: 0.8 µM

Cc1nc(NCCC(F)(F)F)nc(N[C@@H]2C[C@H](CO)[C@@H](O)[C@H]2O)c1-c1nc2ccccc2s1 [Example 218]
EC90 [3]: < 0.5 µM

CNc1nc(C)c(-c2nc3cnccc3s2)c(N[C@@H]2C[C@H](CO)[C@@H](O)[C@H]2O)n1 [Example 1326]
EC90 [1]: < 0.5 µM

Cc1nc(Nc2ccc(F)cc2)nc(N[C@@H]2C[C@H](CO)[C@@H](O)[C@H]2O)c1-c1nc2ccccc2s1 [Example 1044]
EC90 [1]: 0.5 to 5 µM

Cc1ccc2nc(-c3c(Cl)nc(N)nc3N[C@@H]3C[C@H](CO)[C@H]4OC(C)(C)O[C@H]43)oc2c1 [Example 190]
EC90 [3]: > 5 µM

Cc1nc(NCCNS(C)(=O)=O)nc(N[C@@H]2C[C@H](CO)[C@@H](O)[C@H]2O)c1-c1nc2ccccc2s1 [Example 258]
EC90 [4]: 0.5 to 5 µM

Cc1nc(NC(CF)CF)nc(N[C@@H]2C[C@H](CO)[C@H]3OC(C)(C)O[C@H]32)c1-c1nc2ccccc2s1 [Example 136]
EC90 [4]: 0.5 to 5 µM
